What was measured:
[1] = test system: MC3T3-E1 (mouse calvarial) osteoblast cells; assay: Bone formation assay: rescue of sclerostin inhibition of mineralization (total calcium); format: cell-based; set-up: key to Sclerostin Inhibition of Mineralization; improvement over sclerostin alone: − indicates no improvement over sclerostin protein alone; + indicates an IC100 >10 μM; ++ indicates an IC100 <10 μM; conditions: for Sclerostin Inhibition of Mineralization; improvement over sclerostin alone: IC100 class, calcium concentration
Description: Mineralization (crystalline calcium phosphate formation) represents an in vitro model of bone formation. Using an assay in which the amount of mineralization is quantified by measuring total calcium after solubilization of deposited crystalline calcium phosphate, sclerostin was previously shown to inhibit mineralization in MC3T3-E1 (mouse calvarial) osteoblast cells. Li et al., J Bone Miner Res 24:578-588 (2008). Following the protocol described in Li et al., Compounds were assayed for their ability to rescue the inhibition of mineralization by sclerostin in MC3T3 osteoblast cells. […] Addition of a compound of Examples 1-6 neutralized sclerostin-mediated inhibition of mineralization, as reflected by the increase in calcium concentration.

[2] = Metabolic stability in pooled human liver microsomes; format: in vitro ADME; conditions: 0.1 μM compound, human liver microsomes 0.1 mg/mL, NADPH, 37° C., 60 minutes
Description: Compounds of the present invention (0.1 μM) were incubated with microsomes at 37° C. for a total of 60 minutes. The reaction contained pooled human liver microsomal protein (0.1 mg/mL) in potassium phosphate buffer with NADPH. At the indicated time points (0, 5, 15, 30 and 60 minutes). Samples were analyzed by LC/MS/MS and remaining parent drug was calculated using Microsoft Excel (2007). Obach R S, Drug Metab Dispos. 27(11):1350-1359 (1999).

[3] = target: T1, sclerostin (Homo sapiens, UniProt Q9BQB4); assay: Modulation of sclerostin/Wnt activity: restoring Wnt3a signaling in the presence of sclerostin; format: cell-based; set-up: key to Sclerostin Inhibition Assay; improvement over sclerostin alone: − indicates no improvement over sclerostin protein alone; + indicates an IC100 >10 μM; ++ indicates an IC100 <10 μM; conditions: for Sclerostin Inhibition Assay; improvement over sclerostin alone: IC100 class, Wnt3a signaling in human embryonic cells in the presence of sclerostin
T1 construct: host or cells: human embryonic cells (assay cells)
T1 sequence (Q9BQB4 24-213): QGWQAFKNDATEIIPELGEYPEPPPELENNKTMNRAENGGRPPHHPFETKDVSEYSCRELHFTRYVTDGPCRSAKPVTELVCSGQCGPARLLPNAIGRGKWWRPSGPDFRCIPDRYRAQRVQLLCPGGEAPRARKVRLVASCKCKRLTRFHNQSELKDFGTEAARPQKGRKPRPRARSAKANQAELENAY
Description: Compounds synthesized in accordance with the methods of Examples 1-6 were assayed for their ability to restore Wnt signaling in the presence of sclerostin consistent with a known sclerostin antagonist, sclerostin Mab. See, Ellies et al., J Bone Miner Res 21:1738-1749 (2006). […] The addition of a known sclerostin antagonist inhibited sclerostin inhibition of Wnt3a signaling, thus restoring Wnt3a signaling in the cell (IC100 at 10 μM) (data not shown).

Row | Molecule | Sclerostin Inhibition of Mineralization; improvement over sclerostin alone [1] | Metabolic Stability [2] | Sclerostin Inhibition Assay; improvement over sclerostin alone [3] | effect on mineralization, as measured by calcium concentration (in words) [1] | effect on Wnt3a signaling (in words) ([3]; human embryonic cells)
1 | Cl.FC(F)(F)c1nccc2c3ccncc3n(CCN3CCOCC3)c12 [Example 1, 4-(2-(1-(Trifluoromethyl)-9H-pyrrolo[2,3-c:5,4-c′]dipyridin-9-yl)ethyl)morpholine hydrochloride salt] | + (+ indicates an IC100 >10 μM) | ++ (++ indicates a stability >1x) | + (+ indicates an IC100 >10 μM) |  | 
2 | Cl.[O-][n+]1ccc2c3ccnc(C(F)(F)F)c3n(CCN3CCOCC3)c2c1 [Example 2, 9-(2-Morpholinoethyl)-8-(trifluoromethyl)-9H-pyrrolo[2,3-c:5,4-c′]dipyridine 2-oxide hydrochloride salt] | − | ++ (++ indicates a stability >1x) | − |  | 
3 | COc1ccc2c3ccnc(C(F)(F)F)c3n(CCN3CCOCC3)c2n1.Cl [Example 3, 4-(2-(2-Methoxy-8-(trifluoromethyl)-9H-pyrrolo[2,3-b:5,4-c′]dipyridin-9-yl)ethyl)morpholine hydrochloride salt] | ++ (++ indicates an IC100 <10 μM) | ++ (++ indicates a stability >1x) | ++ (++ indicates an IC100 <10 μM) |  | 
4 | COc1cc2c(cn1)c1ccnc(C(F)(F)F)c1n2CCN1CCOCC1.Cl [Example 4, 4-(2-(3-Methoxy-6-(trifluoromethyl)-5H-pyrrolo[2,3-c:4,5-c′]dipyridin-5-yl)ethyl)morpholine hydrochloride salt] | ++ (++ indicates an IC100 <10 μM) | ++ (++ indicates a stability >1x) | ++ (++ indicates an IC100 <10 μM) |  | 
5 | COc1ncc2c3ccnc(C(F)(F)F)c3n(CCN3CCOCC3)c2n1 [Example 5, 4-(2-(2-Methoxy-8-(trifluoromethyl)-9H-pyrido[4′,3′:4,5]pyrrolo[2,3-d]pyrimidin-9-yl)ethyl)morpholine] | ++ (++ indicates an IC100 <10 μM) | ++ (++ indicates a stability >1x) | ++ (++ indicates an IC100 <10 μM) |  | 
6 | COc1nc2c(cc1F)c1ccnc(C(F)(F)F)c1n2CCN1CCOCC1.Cl [Example 6, 4-(2-(3-Fluoro-2-methoxy-8-(trifluoromethyl)-9H-pyrrolo[2,3-b:5,4-c′]dipyridin-9-yl)ethyl)morpholine hydrochloride salt] | ++ (++ indicates an IC100 <10 μM) | ++ (++ indicates a stability >1x) | ++ (++ indicates an IC100 <10 μM) |  | 
7 | Sclerostin protein: sclerostin protein, antagonizes Wnt3a signaling and inhibits mineralization; the assays' inhibitory stimulus and baseline | − |  | − | significant decrease in mineralization | antagonized Wnt3a signaling
